Columns and labels:
Dural cells = test: Osseous differentiation of dural cells plated on substrate (alkaline phosphatase staining); type: cell-based; details: substrate 100 μg/cm^2
Method: Dural cells were forced to adopt a bony phenotype by two separate methods. The first included plating these cells on a MATRIGEL or laminin substrate (100 μg/cm^2).

Cells from the meninges = test: Neural differentiation of meningeal-derived stem cells in induction media; type: cell-based; details: for effect on neural differentiation compared with dexamethasone: used as substitutes for dexamethasone
Method: Cells from the meninges that are allowed to become 70% confluent (FIG. 2A) are susceptible to differentiating into nerve under two conditions: antioxidant treatment and steroid hormone treatment. […] This can also be achieved with other antioxidants (i.e., reducing agents), such as butylated hydroxyanisole (BHA) (approximately 200 μM), dithiothreitol (DTT; i.e., Cleland's reagent), as well as dithioerythritol, tributylphosphine, iodoacetamide, tris-phosphine HCl, deoxythymidine-triphosphate trilithium salt, diethylthiatricarbocyanine perchlorate, diethylthiatricarbocyanine iodide and DECROLINE D (available from BASF Corporation; Mount Olive, N.J.; generic name zinc formaldehyde sulfoxylate). These conditions are similar to those used to differentiate bone marrow-derived stem cells and adipose-derived stem cells (D. Woodbury et al., “Adult rat and human bone marrow stromal cells differentiate into neurons,” J. Neuroscience Res., 61(4):364-70 (2000)). The cells that form have a bipolar morphology and express nerve-specific markers.
The cells differentiate into what are morphologically distinct subsets of neurons when exposed to small concentrations (e.g, 100 nM) of dexamethasone; a steroid hormone.
These may therefore be used as substitutes for dexamethasone. Other steroids that may be used in accordance with this embodiment of the present invention include pregnenolone, aldosterone, testosterone, estradiol and cortisol.

laminin
expression of alkaline phosphatase (differentiated bone marker) (Dural cells): expressed alkaline phosphatase (a differentiated bone marker) within seven days

OCCS [β-mercaptoethanol]
differentiation into neural-like cells (Cells from the meninges; pre-induction media with 1 mM β-mercaptoethanol for 24 hours, then induction media DMEM, 5 mM β-mercaptoethanol, cells 70% confluent): differentiate into neural-like cells within six hours

CC1=C(/C=C/C(C)=C/C=C/C(C)=C/C=O)C(C)(C)CCC1 [retinaldehyde]
effect on neural differentiation compared with dexamethasone (Cells from the meninges): elicited similar effects to dexamethasone

CC1=C(/C=C/C(C)=C/C=C/C(C)=C/CO)C(C)(C)CCC1 [retinol]
effect on neural differentiation compared with dexamethasone (Cells from the meninges): elicited similar effects to dexamethasone

vitamin A
effect on neural differentiation compared with dexamethasone (Cells from the meninges): elicited similar effects to dexamethasone

C=C1/C(=C\C=C2/CCC[C@]3(C)[C@@H]([C@H](C)CCCC(C)(C)O)CC[C@@H]23)C[C@@H](O)C[C@@H]1O [1,25-dihydroxy vitamin D3]
effect on neural differentiation compared with dexamethasone (Cells from the meninges): elicited similar effects to dexamethasone

Source: patent US7410797B2, “Meningeal-derived stem cells” (priority 2002, dated 2008)
